The results in this text go back to the NIST ThermoML archive (doi:10.1021/je500363r).

Numbers after ± are expanded uncertainties.

The conditions of data set [1]: Crystal; DTA.
Data set [2] can be described thus: Molar enthalpy of transition or fusion. The following applies: Crystal; DSC.

Consider `Br.CC(C)c1ccc(NC2=NCCC3(CCCCC3)[Se]2)cc1`, for which the Normal melting temperature in data set [1] was determined as 148.4 ± 0.5 °C. Also, the “Molar enthalpy of transition or fusion” value in data set [2] is 3.08 ± 0.239 kcal/mol.
Consider `Br.c1ccc(NC2=NCCC3(CCCCC3)[Se]2)cc1`, for which the Normal melting temperature in data set [1] is 144.8 ± 0.5 °C. For the same compound, the “Molar enthalpy of transition or fusion” value in data set [2] is 4.3 ± 0.263 kcal/mol.
With `Br.Fc1ccc(NC2=NCCC3(CCCCC3)[Se]2)cc1`, the Normal melting temperature in data set [1] was 196.2 ± 0.5 °C. Moreover, the “Molar enthalpy of transition or fusion” value in data set [2] was 6 ± 0.263 kcal/mol.
